Consider six compounds from patent US20230029554A1, “ORGANOID CULTURES” (THE WALTER AND ELIZA HALL INSTITUTE OF MEDECAL RESEARCH, priority 2019, published 2023).

For data set [1] the following is noted: physiological concentrations observed in patients; cited from earlier work.
For data set [2], the system named is colorectal cancer organoids. Kind of data set: Inhibition of colorectal cancer organoid growth by bortezomib (cell killing control). Format: cell-based, human. The note with it: at 1 μM; three cancer organoids; image analysis and CellTitreGlo 3D (FIG. 17). As for the experimental part: The bortezomib concentration of 1 um was selected as positive (killing) control, indicated by the dashed red line.
Organoids were digested with TrypLE Express enzyme at 37° C. for 15-20 min. Digestion was terminated in 1% BSA in DMEM/F12 and fragments were collected by centrifugation. Pellets were resuspended in culture medium, dissociated with a 26 G needle and filtered through a 40 μm cell strainer (Bio-Strategy, BDAA352340) to produce a single cell suspension. Live cells were counted using a hemocytometer and trypan blue staining. Single cells (3000 cells in 60 μl/well) were suspended in culture medium with 3% Matrigel, penicillin-streptomycin, normocin and 10 μM Y27632 and seeded in 384-well optical plates (Thermo Fisher Scientific, NUN242764) using a MANTIS® liquid handling robot (Formulatrix), and established for 3 days prior to drug addition. […]
Plate uniformity in the 384-well format was evaluated for maximum (Max) signals, minimum (Min) signals, and drug dose-dependent midpoint (Mid) signals (FIG. 15c-f). […] Organoid viability was determined by both image analysis and CellTiter-Glo 3D luminescence measurements. Mean organoid size and luminescence signals were visualized as heatmaps for each plate and plotted by wells for each plate row from left to right or as drug dose-response curves.

Another data set deals with mitochondrial function. The following applies: Weng, Z. et al. (2015) Toxicology 327, 10-21; cited from earlier work.
The subject of data set [3] is cancer organoid WCB088T. Kind of data set: Regorafenib dose-response in 384-well LVM suspension culture, CellTitre-Glo 3D viability assay. Format: cell-based. The note with it: Homo sapiens, 168 h, 7 days drug, 3% Matrigel, read-out: Mean ED50. The method, then: (§1) Organoids were digested with TrypLE Express enzyme at 37° C. for 15-20 min. Digestion was terminated in 1% BSA in DMEM/F12 and fragments were collected by centrifugation. Pellets were resuspended in culture medium, dissociated with a 26 G needle and filtered through a 40 μm cell strainer (Bio-Strategy, BDAA352340) to produce a single cell suspension. Live cells were counted using a hemocytometer and trypan blue staining. Single cells (3000 cells in 60 μl/well) were suspended in culture medium with 3% Matrigel, penicillin-streptomycin, normocin and 10 μM Y27632 and seeded in 384-well optical plates (Thermo Fisher Scientific, NUN242764) using a MANTIS® liquid handling robot (Formulatrix), and established for 3 days prior to drug addition. For plate uniformity studies, 1 μM bortezomib (Selleck, S1013) was used as the positive control, and 0.5% DMSO (Sigma, D2650) was used as a negative vehicle control. For the drug-dose response curves, regorafenib (Selleck, S1178) was used in a 9 point 4-fold titration series starting at 50 μM. All compound plates were prepared using a JANUS liquid handling robot (PerkinElmer) and stamped into 384-well plates using an integrated PinTool addition accessory (PerkinElmer).
(§2) PDTOs were imaged every 24 h for 7 days by bright-field microscopy as z-stacks on an automated Eclipse Ti2 Inverted Microscope System with an integrated tissue culture incubator (Nikon). 384-well images were captured using a 4× dry objective and Nikon Eclipse Ti2 software with a 25 μm Z-stack over a range of 500 μm. On day 7, 20μl CellTiter-Glo 3D reagent (Promega, G9683) was added using the MANTIS® liquid handling robot, plates were shaken at 1000 rpm for 30 mins at room temperature and luminescence measured using an EnVision plate reader (PerkinElmer).
(§3) For comparison of uniformity of regorafenib dose response curves between imaging and CellTitreGlo 3D data, response curves were fitted using a 4-parameter log-logistic function to percent viability data.
(§4) Plate uniformity in the 384-well format was evaluated for maximum (Max) signals, minimum (Min) signals, and drug dose-dependent midpoint (Mid) signals (FIG. 15c-f). To determine Max signals, organoids were established for 3 days, treated with 0.5% DMSO (vehicle control) using a JANUS Automated Liquid Handling Workstation with a 384 pin tool, and incubated for 7 days. […] To evaluate dose-dependent Mid signals, regorafenib was titrated across each half of the assay plate in a 9-step, 4-fold dilution series starting from 50 μM, generating a total of 24 drug dose-response curves. Organoid viability was determined by both image analysis and CellTiter-Glo 3D luminescence measurements. Mean organoid size and luminescence signals were visualized as heatmaps for each plate and plotted by wells for each plate row from left to right or as drug dose-response curves.

Data set [4] relates to cancer organoid WCB024T. The description is as above. Format: cell-based. The following applies: Homo sapiens, 168 h, 7 days drug, 3% Matrigel, read-out: Mean ED50. As for the experimental part: as §1, §2, §3, §4
Data set [5] has as its system cancer organoid WCB123LU. Described as above. Type of data set: cell-based. The note with it: Homo sapiens, 168 h, 7 days drug, 3% Matrigel, read-out: Mean ED50. The method, then: as §1, §2, §3, §4
The subject of data set [6] is cancer organoid WCB088T. The data set can be described thus: Regorafenib dose-response in 384-well LVM suspension culture, image analysis (mean organoid size). Type of data set: cell-based. The note with it: Homo sapiens, 168 h, imaging, 7 days drug, 3% Matrigel, read-out: Mean ED50. As for the experimental part: as §1, §2
(§5) For image analysis, flattening of Z-stack bright-field images, removal of background debris and selection of organoids were performed using ImageJ software (NIH Image). The projection of z-stack images onto a single in-focus image was carried out using the Extended Depth of Field (EDF) plugin in “easy mode”, with the parameter quality=′1′ and topology=1′. Processed images were exported as high-quality tiff files. Background debris removal was performed by with a series of steps including Subtract Background, Enhance Local Contrast (CLAHE), set AutoThreshold, set Black Background, and Convert to Mask. Organoid selection and feature extraction were achieved using sequential Analyze Particles, Invert LUT, Fill Holes, Watershed, Set Measurements and Analyze Particles steps. Features of selected organoids were exported as text files for determination of mean organoid size.
as §3, §4

The subject of data set [7] is cancer organoid WCB024T. Described as above. Type of data set: cell-based. The following applies: Homo sapiens, 168 h, imaging, 7 days drug, 3% Matrigel, read-out: Mean ED50. As for the experimental part:
as §1, §2, §5, §3, §4

For data set [8], the system named is cancer organoid WCB123LU. Described as above. Type of data set: cell-based. The following applies: Homo sapiens, 168 h, imaging, 7 days drug, 3% Matrigel, read-out: Mean ED50. As for the experimental part:
as §1, §2, §5, §3, §4

A word on the Cmax: it is the peak of the concentration-time curve. Consider `O=c1[nH]cc(F)c(=O)[nH]1` [5-FU, 5-fluorouracil], for which, in [1], the Cmax was about 7.5 µM.

On to `CCc1c2c(nc3ccc(O)cc13)-c1cc3c(c(=O)n1C2)COC(=O)[C@]3(O)CC` [SN-38], for which, in [1], the Cmax was about 0.14 µM.

`CC(C)C[C@H](NC(=O)[C@H](Cc1ccccc1)NC(=O)c1cnccn1)B(O)O` [bortezomib]: in data set [2], the “growth inhibition (cell killing control)” value was “complete growth inhibition”.

For `O=C1[O][Pt]2([NH][C@@H]3CCCC[C@H]3[NH]2)[O]C1=O` [oxaliplatin], in data set [1], the Cmax is about 5 µM.

As for `CNC(=O)c1cc(Oc2ccc(NC(=O)Nc3ccc(Cl)c(C(F)(F)F)c3)c(F)c2)ccn1` [regorafenib], the “effect on mitochondrial function and cellular ATP levels” value in the data set on mitochondrial function is “impair mitochondrial function and decrease cellular ATP levels”. The EC50 turned out to be 1980 nM in the data set on cancer organoid WCB088T [3] (Mid (Left) plate half); 3410 nM in the data set with cancer organoid WCB088T [3] (Mid (Right) plate half); 3.69 µM with cancer organoid WCB024T [4] (Mid (Left) plate half); 5.15 µM in the data set with cancer organoid WCB024T [4] (Mid (Right) plate half); 1010 nM in the data set with cancer organoid WCB123LU [5] (Mid (Left) plate half); 1100 nM with cancer organoid WCB123LU [5] (Mid (Right) plate half). The EC50 in the data set with cancer organoid WCB088T [6] (Mid (Left) plate half) stood at 6.09 µM; in the data set on cancer organoid WCB088T [6] (Mid (Right) plate half), 10.2 µM; with cancer organoid WCB024T [7] (Mid (Left) plate half), 1540 nM; with cancer organoid WCB024T [7] (Mid (Right) plate half) it was 2280 nM; in the data set on cancer organoid WCB123LU [8] (Mid (Left) plate half) it was 1230 nM; in the data set with cancer organoid WCB123LU [8] (Mid (Right) plate half) it was 1560 nM. For the same compound, the Cmax in data set [1] is about 7.3 µM.

Consider TAS-102, for which the Cmax in [1] is about 18.2 µM.
